Reference: US9023876B2, “Compounds and methods for regulating integrins” (Adhaere Pharmaceuticals, Inc., priority 2010, dated 2015)

How the values were obtained:
Fischer 344 rats = test: Balloon induced arterial injury in rats; format: in vivo, rat
Description: All surgeries were under isoflurane anaesthesia (Baxter, Ill., USA). Balloon injury in the right iliac artery was inflicted with a 2F Fogarty catheter (Baxter Corp., Irvine, Calif., USA) adapted to a custom angiographic kit (Boston Scientific, Scimed). An aortotomy in the abdominal aorta was made to insert a 2F Fogarty embolectomy catheter to the level of the right iliac artery. The balloon was inflated to 1.5-1.6 atmospheres and retracted to the arteriotomy site three times. The aortic excision was repaired with 8.0 sutures. The abdominal cavity was closed by planes using interrupted suture pattern. Arterial specimens were collected 3-30 days after injury and fixed in 4% formalin-PBS (Sigma-Aldrich, St. Louis, Mo.) for 5 min and analyzed by histology and immunostaining
Elastica van Gieson staining was used for histochemical analyses to evaluate neointima formation. Morphometric analyses was performed in a blinded fashion using NIH ImageJ. Immunostaining with anti-rat CD68 (1:50, AbD Serotec) for the detection of macrophages in the tissue.
Leukocyte recruitment precedes neointimal thickening and restenosis following percutaneous transluminal coronary angioplasty (PTCA). […]

integrin CD11b/CD18 = target: T1, integrin CD11b/CD18 (Homo sapiens, UniProt P11215); test: Flow cytometry, binding of activation sensitive mAb24 to K562 CD11b/CD18 cells; format: cell-based
T1 construct: expressed in transfected cells; host or cells: K562
Description: Flow cytometric analysis of K562 cells for integrin CD11b/CD18 cell surface expression was performed using published protocols. Briefly, cells were suspended in the assay buffer (TBS containing 1 mM each of Ca^2+ and Mg^2+ ions (TBS^++) and 0.1% BSA). […] Subsequently, the cells were washed three times with the assay buffer and incubated with goat anti-mouse-APC (1 mg/ml, Invitrogen) for 20 min at 4° C. Cells were washed twice with the assay buffer and analyzed using FACSCaliber flow cytometer (BD Biosciences, CA), counting at least 10,000 events. Data was analyzed using the CellQuest software (BD Biosciences). Assays were performed in triplicate and the data shown is from one of at least three independent experiments.
To identify binding site of LA1-3, which are predicted to bind the ligand-binding αA (or α1) domain in CD11b/CD18 [33, 39, 76], we generated K562 cells stably expressing mutant integrin CD11bE320A/CD18 (K562 E320A). The highly conserved residue E320 in the linker following the activation-sensitive α7-helix in the CD11b A-domain (αA-domain) acts as an endogenous ligand of the CD18 vWFA-domain (βA- or I-domain). The E320A mutation abolishes agonist Mn^2+-ion mediated increase in ligand-binding by CD11b/CD18. However, stabilization of αA in a high-affinity conformation by additional activating mutations overcomes this deficit and induces ligand binding in the E320A mutant. […]

B6 male mice = test: Renal I/R injury in mice; format: in vivo, mouse; conditions: given 30 min prior to I/R injury, 24 h post-ischemia, vs DMSO; not shown
Description: Leukadherins reduce renal I/R injury. To evaluate use of leukadherins in the I/R injury induced changes in the kidney function of WT mice, we performed another experiment. B6 male mice (8-12 weeks of age) were anesthetized and kept on a heating pad to keep them at a constant 37° C. temperature. Next, an abdominal incision was made and the renal pedicles were occluded bilaterally with a nontraumatic vascular clamp for 30 minutes, the clamp then removed and the surgical incision was closed. Sham surgery was performed with an identical procedure but without application of the clamps. Renal I/R injury was assessed at 24 h post-ischemia by measuring the serum creatinine levels. Mouse sera from the tail incision was used for the analyses of sCr (and BUN levels (not shown)) using manual kits (Stanbio Laboratory).

murine neutrophils = test: Neutrophil chemotaxis assay in Zigmond chamber, fMLP gradient; format: cell-based, mouse; conditions: vs DMSO
Description: Neutrophil chemotaxis on 2D surfaces was performed using Zigmond chamber (Neuro Probe) as described on acid cleaned glass or Fg coated glass coverslips. Cell migration was allowed in a gradient of […] bacterial peptide formyl-methionyl-leucyl-phenylalanine (fMLP, Sigma), in the absence or presence of leukadherins ([…]). Cell migration was recorded at every 30 sec interval for a period of 25 min using a Nikon Eclipse 90i inverted microscope. Images were acquired with a Nikon DS camera using a PLAN APO 20X differential interference contrast (DIC) microscopy objective and captured into Nikon Imaging software. Analysis of neutrophil migration was performed with the motile population that had moved more than 10 μm using ImageJ software (NIH, USA) with manual cell tracking using the Ibidi chemotaxis and migration tool plugin for ImageJ. Migration velocity and the total displacement (distance from origin) were also analyzed. Quantitation was performed using at least 50 independent cells per condition from at least three independent experiments.
Leukocyte chemotaxis on 2D surfaces involves integrin-mediated sequential adhesion and de-adhesion steps [77]. […] To test if increased cell-adhesion by leukaderins affects cell migration, we used murine neutrophils chemotaxing in response to a gradient of chemokine peptide formyl-Met-Leu-Phe (fMLP). […]

O=C(O)c1ccc(-c2ccc(/C=C3\SC(=S)N(Cc4ccccc4)C3=O)o2)cc1 [LA1]
neointima to media ratio (Fischer 344 rats; rat arteries 21 days after balloon injury, vehicle 0.23±0.01): 0.16±0.02 | number of medial macrophages (CD68) (Fischer 344 rats; rat arteries three days post-injury, vehicle 42.2±6.7): 17.7±3.1 | binding of activation sensitive mAb24 to K562 CD11b/CD18 cells (integrin CD11b/CD18): increase | serum creatinine (sCr) levels (B6 male mice): significant reduction | lateral migration of neutrophils (murine neutrophils): significant decrease | migration velocity of neutrophils (murine neutrophils): significant decrease
